Reference: patent US20260138961A1, “MODULATORS OF MITOCHONDRIAL DNA REPLICATION” (Pretzel Therapeutics, Inc., priority 2022, published 2026)

These molecules were tested against T1, POLγA:A467T (Homo sapiens, UniProt P54098, A467T) (assay: DNA polymerization assay, POLγA:A467T mutant). Details: stimulation of polymerase activity, primed M13mp18 ssDNA, 37° C. 2 hours; read-out: A467T AC50.
T1 sequence (P54098 1-1239 A467T): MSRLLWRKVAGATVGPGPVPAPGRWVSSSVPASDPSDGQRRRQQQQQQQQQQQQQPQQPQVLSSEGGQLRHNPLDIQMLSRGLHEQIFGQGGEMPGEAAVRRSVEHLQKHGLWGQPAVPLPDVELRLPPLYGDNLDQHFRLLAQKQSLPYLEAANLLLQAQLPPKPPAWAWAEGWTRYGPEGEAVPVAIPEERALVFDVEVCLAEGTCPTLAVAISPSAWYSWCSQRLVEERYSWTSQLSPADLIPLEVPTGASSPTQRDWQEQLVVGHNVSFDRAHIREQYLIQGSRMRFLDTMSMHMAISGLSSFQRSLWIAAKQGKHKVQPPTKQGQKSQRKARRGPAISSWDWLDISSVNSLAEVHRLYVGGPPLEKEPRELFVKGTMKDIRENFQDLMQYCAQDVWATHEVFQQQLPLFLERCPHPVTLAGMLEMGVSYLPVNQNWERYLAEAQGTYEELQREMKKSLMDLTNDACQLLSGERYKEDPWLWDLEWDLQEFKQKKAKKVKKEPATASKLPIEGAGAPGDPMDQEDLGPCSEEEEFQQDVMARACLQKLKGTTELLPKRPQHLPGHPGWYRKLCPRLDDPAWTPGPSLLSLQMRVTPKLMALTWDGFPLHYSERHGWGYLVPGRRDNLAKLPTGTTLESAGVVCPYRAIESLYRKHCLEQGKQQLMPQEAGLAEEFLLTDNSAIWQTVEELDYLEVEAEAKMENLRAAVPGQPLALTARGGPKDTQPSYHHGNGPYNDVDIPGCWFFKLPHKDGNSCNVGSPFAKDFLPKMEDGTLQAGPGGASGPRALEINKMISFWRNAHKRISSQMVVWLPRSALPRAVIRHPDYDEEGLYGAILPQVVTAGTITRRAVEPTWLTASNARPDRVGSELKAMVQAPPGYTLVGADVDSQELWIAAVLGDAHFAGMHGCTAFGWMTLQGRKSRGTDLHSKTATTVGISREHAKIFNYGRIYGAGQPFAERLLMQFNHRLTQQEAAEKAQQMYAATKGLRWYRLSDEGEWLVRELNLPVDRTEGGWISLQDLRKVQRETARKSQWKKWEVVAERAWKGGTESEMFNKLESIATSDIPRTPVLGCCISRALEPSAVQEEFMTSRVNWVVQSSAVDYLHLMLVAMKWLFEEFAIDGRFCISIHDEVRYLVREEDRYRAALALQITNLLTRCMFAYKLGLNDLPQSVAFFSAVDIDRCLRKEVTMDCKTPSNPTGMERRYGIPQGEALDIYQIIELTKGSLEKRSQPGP
T1 sequence (Q9UHN1 1-485 partner): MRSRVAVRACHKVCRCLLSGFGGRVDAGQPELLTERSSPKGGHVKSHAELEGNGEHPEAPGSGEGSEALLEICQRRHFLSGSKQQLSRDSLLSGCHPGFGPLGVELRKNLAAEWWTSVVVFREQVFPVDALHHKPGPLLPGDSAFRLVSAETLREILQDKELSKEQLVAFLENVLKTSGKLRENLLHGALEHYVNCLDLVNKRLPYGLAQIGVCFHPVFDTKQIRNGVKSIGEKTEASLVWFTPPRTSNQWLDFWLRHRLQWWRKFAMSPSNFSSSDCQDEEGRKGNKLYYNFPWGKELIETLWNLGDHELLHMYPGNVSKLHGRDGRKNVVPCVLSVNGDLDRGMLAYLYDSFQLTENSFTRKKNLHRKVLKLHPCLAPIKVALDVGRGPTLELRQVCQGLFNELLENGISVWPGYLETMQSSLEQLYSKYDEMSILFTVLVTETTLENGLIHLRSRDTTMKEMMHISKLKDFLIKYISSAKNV
Format: biochemical

| SMILES | AC50 [µM] |
| --- | --- |
| Cc1cc(S(=O)(=O)Nc2cccc(C(=O)N3CCC(F)(F)C3)c2)c(C)cc1Cl [Example 160, 4-chloro-N-(3-(3,3-difluoropyrrolidine-1-carbonyl)phenyl)-2,5-dimethylbenzenesulfonamide] | > 100 |
| Cc1ccc(C)c(S(=O)(=O)Nc2cccc(-c3nccs3)c2)c1 [Example 60] | 5 |
| Cc1cc(S(=O)(=O)Nc2cn(Cc3ccccc3)cn2)c(C)cc1Cl [Example 168, N-(1-benzyl-1H-imidazol-4-yl)-4-chloro-2,5-dimethylbenzenesulfonamide] | > 100 |
| CC(=O)N1CCC(c2nc(NS(=O)(=O)c3cc(C)c(Cl)cc3C)cs2)CC1 [Example 163, N-(2-(1-acetylpiperidin-4-yl)thiazol-4-yl)-4-chloro-2,5-dimethylbenzenesulfonamide] | > 100 |
| Cc1ccc(C)c(S(=O)(=O)Nc2cccc(C(=O)N3CCOCC3)c2)c1 [Example 29, 2,5-dimethyl-N-(3-(morpholine-4-carbonyl)phenyl)benzenesulfonamide] | > 100 |
| N#CC1CSCCN1C(=O)c1cccc(NS(=O)(=O)c2cccc(C(F)(F)F)c2)c1 (centres unmarked) [Example 35, N-(3-(3-cyanothiomorpholine-4-carbonyl)phenyl)-3-(trifluoromethyl)benzenesulfonamide] | > 100 |
| Cc1cc(S(=O)(=O)N[C@H]2CCN(c3ccccc3)C2)c(C)cc1Cl [Example 158, (S)-4-chloro-2,5-dimethyl-N-(1-phenylpyrrolidin-3-yl)benzenesulfonamide] | > 100 |
| Cc1cc(S(=O)(=O)Nc2cccc(C(=O)N3CCN(C)C[C@H]3C)c2)c(C)cc1Cl [Example 54, (R)-4-chloro-N-(3-(2,4-dimethylpiperazine-1-carbonyl)phenyl)-2,5-dimethylbenzenesulfonamide] | > 100 |
| Cc1ccc(C)c(S(=O)(=O)Nc2cccc(C(=O)N(C)C)c2)c1 [Example 25, 3-((2,5-dimethylphenyl)sulfonamido)-N,N-dimethylbenzamide] | > 100 |
| Cc1cc(S(=O)(=O)Nc2csc(C3CCOCC3)n2)c(C)cc1Cl [Example 167, 4-chloro-2,5-dimethyl-N-(2-(tetrahydro-2H-pyran-4-yl)thiazol-4-yl)benzenesulfonamide] | 8 |
| Cc1ccc(C)c(S(=O)(=O)Nc2cncc(C(=O)N3CCOCC3)c2)c1 [Example 38, 2,5-dimethyl-N-(5-(morpholine-4-carbonyl)pyridin-3-yl)benzenesulfonamide] | > 100 |
| CC(=O)N1CCN(C(=O)c2cccc(NS(=O)(=O)c3cc(C)ccc3C)c2)CC1 [Example 30, N-(3-(4-acetylpiperazine-1-carbonyl)phenyl)-2,5-dimethylbenzenesulfonamide] | > 100 |
| Cc1cc(S(=O)(=O)Nc2csc(C(=O)N(CC(N)=O)C3CCCCC3)n2)c(C)cc1Cl [Example 179, N-(2-amino-2-oxoethyl)-4-((4-chloro-2,5-dimethylphenyl)sulfonamido)-N-cyclohexylthiazole-2-carboxamide] | > 100 |
| Cc1ccc(C)c(S(=O)(=O)Nc2cccc(C(N)=O)c2)c1 [Example 27, 3-((2,5-dimethylphenyl)sulfonamido)benzamide] | > 100 |
| COc1ccc(S(=O)(=O)Nc2cccc(C(=O)N3CCSCC3C#N)c2)cc1 (centres unmarked) [Example 34, N-(3-(3-cyanothiomorpholine-4-carbonyl)phenyl)-4-methoxybenzenesulfonamide] | > 100 |

Second part, the molecule after the results:

| AC50 [µM] | SMILES |
| --- | --- |
| > 100 | Cc1cc(S(=O)(=O)Nc2ccc(F)c(-c3nccs3)c2)c(C)cc1Cl [Example 63, 4-chloro-N-(4-fluoro-3-(thiazol-2-yl)phenyl)-2,5-dimethylbenzenesulfonamide] |
| 1 | COc1cccc(-c2nc(NS(=O)(=O)c3cc(C)c(Cl)cc3C)cs2)c1 [Example 165, 4-chloro-N-(2-(3-methoxyphenyl)thiazol-4-yl)-2,5-dimethylbenzenesulfonamide] |
| > 100 | Cc1cc(S(=O)(=O)Nc2nc(-c3ccccc3)co2)c(C)cc1Cl [Example 157, 4-chloro-2,5-dimethyl-N-(4-phenyloxazol-2-yl)benzenesulfonamide] |
| 3 | Cc1cnc(-c2cccc(NS(=O)(=O)c3cc(C)c(Cl)cc3C)c2)s1 [Example 21, 4-chloro-2,5-dimethyl-N-(3-(5-methylthiazol-2-yl)phenyl)benzenesulfonamide] |
| > 100 | Cc1cc(S(=O)(=O)Nc2nc(-c3ccccc3)cn2C)c(C)cc1Cl [Example 159, 4-chloro-2,5-dimethyl-N-(1-methyl-4-phenyl-1H-imidazol-2-yl)benzenesulfonamide] |
| 33 | Cc1cc2cc(NS(=O)(=O)c3cc(C)c(Cl)cc3C)ccc2[nH]1 [Example 184, 4-chloro-2,5-dimethyl-N-(2-methyl-1H-indol-5-yl)benzenesulfonamide] |
| > 100 | Cc1cc(S(=O)(=O)Nc2cccc(C(N)=O)c2)c(C)cc1Cl [Example 44, 3-((4-chloro-2,5-dimethylphenyl)sulfonamido)benzamide] |
| > 100 | Cc1cc(S(=O)(=O)Nc2cn(-c3ccccc3)cn2)c(C)cc1Cl [Example 169, 4-chloro-2,5-dimethyl-N-(1-phenyl-1H-imidazol-4-yl)benzenesulfonamide] |
| > 10 | Cc1cc(S(=O)(=O)Nc2csc(-c3ccn(C)n3)n2)c(C)cc1Cl [Example 181, 4-chloro-2,5-dimethyl-N-(2-(1-methyl-1H-pyrazol-3-yl)thiazol-4-yl)benzenesulfonamide] |
| > 100 | Cc1cc(S(=O)(=O)Nc2cccc(C(=O)NCCO)c2)c(C)cc1Cl [Example 53, 3-((4-chloro-2,5-dimethylphenyl)sulfonamido)-N-(2-hydroxyethyl)benzamide] |
| > 100 | Cc1cc(S(=O)(=O)Nc2cccc(C(=O)N3CCC[C@H]3C)c2F)c(C)cc1Cl [Example 57, (R)-4-chloro-N-(2-fluoro-3-(2-methylpyrrolidine-1-carbonyl)phenyl)-2,5-dimethylbenzenesulfonamide] |
| > 100 | COc1ccccc1-c1nc(NS(=O)(=O)c2cc(C)c(Cl)cc2C)cs1 [Example 155, 4-chloro-N-(2-(2-methoxyphenyl)thiazol-4-yl)-2,5-dimethylbenzenesulfonamide] |
| > 100 | Cc1cc2c(NS(=O)(=O)c3cc(C)c(Cl)cc3C)cccc2[nH]1 [Example 37, 4-chloro-2,5-dimethyl-N-(2-methyl-1H-indol-4-yl)benzenesulfonamide] |
| 15 | CC[C@@H]1CCCN1C(=O)c1cccc(NS(=O)(=O)c2cc(C)c(Cl)cc2C)c1 [Example 65, (R)-4-chloro-N-(3-(2-ethylpyrrolidine-1-carbonyl)phenyl)-2,5-dimethylbenzenesulfonamide] |
| > 100 | Cc1cc(S(=O)(=O)Nc2cc(-c3nccs3)ccc2F)c(C)cc1Cl [Example 61, 4-chloro-N-(2-fluoro-5-(thiazol-2-yl)phenyl)-2,5-dimethylbenzenesulfonamide] |
| > 100 | Cc1nc2cc(NS(=O)(=O)c3cc(C)c(Cl)cc3C)ccc2s1 [Example 71, 4-chloro-2,5-dimethyl-N-(2-methylbenzo[d]thiazol-5-yl)benzenesulfonamide] |
| > 100 | Cc1cc(S(=O)(=O)Nc2cccc3c2CC(=O)N3)c(C)cc1Cl [Example 36, 4-chloro-2,5-dimethyl-N-(2-oxoindolin-4-yl)benzenesulfonamide] |
